Assay results published in patent US11203753B2, “Hepcidin antagonists for use in the treatment of inflammation” (INSERM (INSTITUT NATIONAL DE LA SANTE ET DE LA RECHERCHE …, priority 2015, dated 2021).

Key:
NF-kB pathway = assay: Hepcidin-induced expression of CXCL1 and TNF-α in macrophages with pathway inhibitors; assay type: cell-based, mouse
From the text: Moreover, MyD88, a canonical adaptor for inflammatory signaling pathway, but not TLR4, was required for the hepcidin-triggered induction of CXCL1 and TNF-α. Indeed, macrophages isolated from TLR4−/− but not MyD88−/− mice were still able to mount an inflammatory response after addition of hepcidin.

Cxcr2 = molecular target: T1, Cxcr2 (Mus musculus, UniProt P35343); assay: Neutrophil migration towards hepcidin in presence of Cxcr2 inhibitor; assay type: cell-based; conditions: hepcidin 1 μg/ml
T1 construct: Migration of WT bone marrow isolated neutrophils in response to hepcidin (1 μg/ml); endogenous in cells; host or cells: primary neutrophils isolated from bone marrow of WT mice (mixed C57BL6/129SV background)
T1 sequence (P35343 1-359): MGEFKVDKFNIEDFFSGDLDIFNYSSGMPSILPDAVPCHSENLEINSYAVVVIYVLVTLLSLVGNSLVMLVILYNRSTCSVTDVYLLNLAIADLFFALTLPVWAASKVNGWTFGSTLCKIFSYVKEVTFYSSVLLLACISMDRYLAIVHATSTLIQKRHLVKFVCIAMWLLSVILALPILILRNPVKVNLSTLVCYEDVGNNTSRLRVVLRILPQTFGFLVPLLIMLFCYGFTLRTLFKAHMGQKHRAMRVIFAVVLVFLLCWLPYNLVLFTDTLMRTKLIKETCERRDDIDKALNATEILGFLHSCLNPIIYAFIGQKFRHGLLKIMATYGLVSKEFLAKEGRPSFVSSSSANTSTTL
Method: Migration of WT bone marrow isolated neutrophils in response to hepcidin (1 μg/ml) in presence or not of the Cxcr2 inhibitor (sb225002, Sigma-Aldrich). n=3. mean+/−s.e.m.
(§1) Neutrophil migration was assessed using transwell (3 μm; BD-Falcon) coated with 10 μg/ml fibronectin (# F1141, Sigma-Aldrich). The cells (5×10^5/well) were diluted in 700 μL DMEM+10% SVF and migration towards hepcidin (Peptide International) in the bottom well was allowed for 2 hours at 37° C. The resulting migrated cells recovered from the bottom well were counted using hemocytometer.

hepcidin expression = assay: Hepcidin expression (Q-PCR) in mouse intestine and liver 7 h after ip injection of TLR agonists; assay type: in vivo; conditions: WT mice
Method: Mice were ip injected with LPS (from E. coli O111:B4; 2 mg/kg), Zymosan A (from Saccharomyces cerevisiae, Sigma-Aldrich Z4250; 250 mg/kg), Poly:IC (Polyinosinic-polycytidylic acid sodium salt, Sigma-Aldrich P0913; 12.5 mg/kg), Flagellin (FLA-ST from Salmonella Typhimirium, InvivoGen, #12B06-MM; 1.5 mg/kg) or with a sterile saline solution (PBS) and sacrificed 7 hours later.
(§2) RNA extraction, reverse transcription, quantitative PCR and sequences of the primers used have been previously described^8. All samples were normalized to the threshold cycle value for cyclophilin-A.

[1] = test system: WT bone marrow isolated neutrophils; assay: Neutrophil migration assay (transwell) towards hepcidin; assay type: cell-based, mouse
Method: Bone marrows from WT mice were flushed from femurs and tibias with PBS using a 25 G needle. Tissues were homogenized through a 18 G needle and the suspension was passed through 70 μm and 40 μm cell strainers. Cells were centrifuged at 400 g for 10 min and resuspended in cold MACS buffer (PBS, BSA 0.5%, EDTA 2 mM, pH 7.4). After counting, cells were incubated on ice with FcBlock™ for 10 min, anti-Ly6C for 15 min and anti-biotin antibody microbeads for 15 min, following the manufacturer's instructions. Cells were washed with MACS buffer and centrifuged at 400 g for 10 min. Neutrophils were immuno-magnetically separated following filtration of the cell suspension through an LS column (Miltenyi) according to manufacturer's instructions.
as §1

macrophages [2] = assay: Inflammatory gene expression (Q-PCR) in macrophages incubated with hepcidin-25; assay type: cell-based, mouse
Method: a, Flow cytometry analysis of neutrophils in lamina propria of WT and KO mice. Left: Representative experiment with Ly6G^+ Ly6C^low cells shown after gating on CD45^+CD11b^+ cells; Right: pool of four experiments (mean+/−s.e.m; *p<0.05). b, Migration of WT bone marrow isolated neutrophils in response to hepcidin-25. (3 experiments performed in triplicate; mean+/−s.e.m; *p<0.05). c, CXCL1, CXCL2, IL-1beta, iNOS mRNA levels in macrophages incubated for 1 or 3 hours with 1 μg/ml, 10 μg/ml Hepcidin-25 or PBS (control). d, Immunohistochemistry using anti-mouse iNOS antibody on intestine of WT and Hepc^Δint mice upon PBS or LPS injection.
The gastrointestinal tract contains the largest reservoir of macrophages in the organism^17. Besides its proper chemoattractant property, the inventors hypothesized that hepcidin may influence the production of chemokines by the macrophages. Macrophages were incubated with hepcidin-25 at different time points (30 min, 1 h, 3 h, 24 h, 48 h).
as §2

macrophages [3] = assay: CXCL1 and TNF-α protein accumulation by macrophages following hepcidin treatment; assay type: cell-based, mouse; conditions: at 7 hours
Method: Kinetic response of macrophage-derived CXCL1 and TNF-α following hepcidin treatment was further determined. […] Massive protein accumulation of CXCL1 and TNF-α reached respectively 300 and 150 pg/ml at 7 hours (Data not shown). Hepcidin stimulated IL-1beta, IL-6 and iNOS expression with a maximal induction at 3 hours with 10 μg/ml hepcidin (FIG. 2c) while the peak of TNF-alpha and Cox-2 expression occurred after 1 hour of hepcidin treatment. AMPs, such as LL37, typically function in this high concentration range^18,19 to induce proinflammatory molecules^20,21. This allows the production of inflammatory mediators in pathological conditions where AMPs concentrations can reach high values^18,19 and not in healthy tissues where inflammatory damage might otherwise harm host cells.

[4] = test system: Caco-2 intestinal cell line; assay: Addition of synthetic mature hepcidin to Caco-2 intestinal cell line; assay type: cell-based; conditions: basolateral or apical side
[5] = test system: Raw 264.7 (ATCC TIB-71) murine macrophage cell line; assay: CXCL2 and TNF-α expression (Q-PCR) in serum starved Raw 264.7 macrophages with Hepc-25; assay type: cell-based
Method: FIG. 9: Serum starvation enhances the proinflammatory action of Hepc-25 in macrophages. Expression by Q-PCR of CXCL2 and TNF-α in Raw 264.7 (ATCC® TIB-71™) murine macrophage cell line serum starved or not for 1 hour before the addition of 10 μg/ml of Hepc-25 (Peptide International) for an additional hour. N=3 per group; mean+/−s.e.m. Statistical analysis by a two-way analysis of variance (ANOVA) followed by a Bonferroni posttest. **p<0.01; ***p<0.001.
Expression by Q-PCR of CXCL2 in Raw 264.7 (ATCC® TIB-71™) murine macrophage cell line serum starved for 1 hour or not before the addition of 1 or 10 μg/ml of Hepc-25 (Peptide International) for an additional hour. N=3 per group; mean+/−s.e.m. Statistical analysis by a two-way analysis of variance (ANOVA) followed by a Bonferroni posttest. **p<0.01; ****p<0.0001.

Cc1ccc(S(=O)(=O)/C=C/C#N)cc1 [BAY 7082]
hepcidin-induced expression of CXCL1 and TNF-α (NF-kB pathway): strongly blunted

CC(C)(C)c1ccc(S(=O)(=O)/C=C/C#N)cc1 [BAY 7085]
hepcidin-induced expression of CXCL1 and TNF-α (NF-kB pathway): strongly blunted

O=C(Nc1ccc([N+](=O)[O-])cc1O)Nc1ccccc1Br [sb225002]
neutrophil migration towards hepcidin (Cxcr2): prevents neutrophil migration

Polyinosinic-polycytidylic acid sodium salt [poly:IC]
hepcidin expression in the intestine (hepcidin expression): induced

hepcidin: synthetic mature 25 amino acid hepcidin peptide (Peptide International)
migration of neutrophils ([1]; bimodal dose response): induced a dose-dependent migration of neutrophils | dose of peak response of neutrophil migration ([1]; migration 2 hours at 37° C.): 0.1 µg/mL | expression of the iron-responsive gene TfR1 (macrophages [2]): unchanged | time of peak of TNF-alpha and Cox-2 expression (macrophages [2]): 1 h | time of peak of transient CXCL1 and TNF-α mRNA induction (macrophages [2]): 1 h | expression of CXCL-1 and CXCL2 (macrophages [2]; 1 μg/ml hepcidin, 1 hour): slightly increased | time of maximal induction of IL-1beta, IL-6 and iNOS expression (macrophages [2]; 10 μg/ml hepcidin): 3 h | expression of CXCL-1 and CXCL2 (macrophages [2]; 10 μg/ml hepcidin, 1 hour): maximally induced | fold change of genes statistically induced (TNF-α, CXCL1, CXCL2, NF-kappa-B inhibitor zeta, Mir-146) (macrophages [2]; 1 hour): > 2 | CXCL1 protein accumulation (macrophages [3]): 300 pg/mL | TNF-α protein accumulation (macrophages [3]): 150 pg/mL | iNOS expression [4]: did not induce | expression of Cxcl2 ([5]; 1 μg/ml, serum starvation 1 hour, 1 additional hour): robust expression | stimulatory effect on macrophage-mediated cytokine release ([5]; serum-free conditions versus not starved): clearly enhanced

B1: flagellin: FLA-ST from Salmonella Typhimirium, agonist of TLR5 (protein, UniProt P06179 2-495, looked up)
Flagellin: AQVINTNSLSLLTQNNLNKSQSALGTAIERLSSGLRINSAKDDAAGQAIANRFTANIKGLTQASRNANDGISIAQTTEGALNEINNNLQRVRELAVQSANSTNSQSDLDSIQAEITQRLNEIDRVSGQTQFNGVKVLAQDNTLTIQVGANDGETIDIDLKQINSQTLGLDTLNVQQKYKVSDTAATVTGYADTTIALDNSTFKASATGLGGTDQKIDGDLKFDDTTGKYYAKVTVTGGTGKDGYYEVSVDKTNGEVTLAGGATSPLTGGLPATATEDVKNVQVANADLTEAKAALTAAGVTGTASVVKMSYTDNNGKTIDGGLAVKVGDDYYSATQNKDGSISINTTKYTADDGTSKTALNKLGGADGKTEVVSIGGKTYAASKAEGHNFKAQPDLAEAAATTTENPLQKIDAALAQVDTLRSDLGAVQNRFNSAITNLGNTVNNLTSARSRIEDSDYATEVSNMSRAQILQQAGTSVLAQANQVPQNVLSLLR
hepcidin expression in the intestine (hepcidin expression): induced
